Test results: patent US11827628B2, “Compositions and methods for inhibition of the JAK pathway” (Rigel Pharmaceuticals, Inc., priority 2005, dated 2023)
Read-outs that look alike come from different tables or passages of the source.

Assays:
[1] = system: up-regulation of ICAM-1 (CD54) by IFNγ in A549 lung epithelial cells; experiment: A549 Epithelial Line Stimulated with IFNγ (ICAM-1 surface expression, FACS); type: cell-based, human; conditions: ICAM-1 expression by FACS, read-out: IC50, Example 43
Summary of the method: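 A549 cells pre-incubated 1 h with compound (30 μM to 14 nM, 5% FBS, 0.3% DMSO), then stimulated with IFNγ (75 ng/mL) for 24 h. Surface ICAM-1 stained with APC anti-CD54 and read by flow cytometry; geometric mean of live-gated events plotted against concentration for EC50.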

Primary human T-cells = experiment: Primary Human T-Cell Proliferation Assay Stimulated with IL-2 (CellTiter-Glo); type: cell-based; conditions: read-out: IC50, Example 42
Summary of the method: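 Peripheral blood T-cells pre-activated with anti-CD3/anti-CD28 and IL-2 were washed free of IL-2, then cultured with compound plus IL-2 for 72 hours at 37° C, duplicate wells. Viability read as ATP by CellTiter-Glo luminescence; IC50 reported.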

[2] = A549 epithelial line stimulated with IFNγ
[3] = primary human T-cell proliferation stimulated with IL-2
[4] = A549 cells stimulated with IFNγ
[5] = primary human T-cells stimulated with IL-2, proliferation

| IC50 [1, 2] | IC50 [1, 4] | Molecule | IC50 (Primary human T-cells; [3]) | IC50 (Primary human T-cells; [5]) |
| --- | --- | --- | --- | --- |
| 2970 nM | – | Cc1ccc(Nc2nc(Nc3ccc(S(N)(=O)=O)cc3)ncc2F)cc1OCC(=O)N1CCOCC1 [Compound I-209, N2-(4-Aminosulfonylphenyl)-5-fluoro-N4-[4-methyl-3-(2-morpholinocarbonylmethyleneoxy)phenyl]-2,4-pyrimidinediamine] | 4470 nM | – |
| – | 30500 nM | NC1CCOc2ccc(Nc3nc(Nc4ccc(S(N)(=O)=O)cc4)ncc3F)cc21 (centres unmarked) [VII-29, N2-(4-Aminosulfonylphenyl)-N4-(chroman-4-amine-6-yl)-5-fluoro-2,4-pyrimidinediamine] | – | 1460 nM |
| – | 4420 nM | CN1C(=O)CSc2ccc(Nc3nc(Nc4cccc(S(=O)(=O)N5CCCCC5)c4)ncc3F)cc21 [VII-50, 5-Fluoro-N4-(4-methyl-3-oxo-benz[1,4]thiazin-6-yl)-N2-(3-pipendinosulfonylphenyl)-2,4-pyrimidinediamine] | – | 856 nM |
| 20000 nM | – | Cc1cc(Nc2nc(Nc3cccc(S(N)(=O)=O)c3)ncc2F)ccc1OC(C)C(N)=O (racemic) [Compound I-120, Racemic N4-[4-(1-Aminocarbonyl)ethoxy-3-methyl]phenyl-N2-(3-aminosulfonyl)phenyl-5-fluoro-2,4-pyrimidinediamine] | 280 nM | – |
| – | 55200 nM | N2-[3-Aminosulfonyl-4-(4-methylpiperazine-1-yl)phenyl]-N4-(3-cyanomethylene-1H-indol-7-yl)-5-fluoro-2,4-pyrimidinediamine [IX-18] | – | 2400 nM |
| – | 6100 nM | N#CCn1ccc2cc(Nc3nc(Nc4cccc(S(N)(=O)=O)c4)ncc3F)ccc21 [IX-5, N2-(3-Aminosulfonylphenyl)-N4-(1-cyanomethyleneindol-5-yl)-5-fluoro-2,4-pyrimidinediamine] | – | 73.8 nM |
| 10400 nM | – | Cc1ccc(Nc2ncc(F)c(Nc3cc(C)c(OC(C)C(N)=O)c(C)c3)n2)cc1S(N)(=O)=O (racemic) [Compound I-124, Racemic N4-[4-(1-Aminocarbonyl)ethoxy-3,5-dimethyl]phenyl-N2-(3-aminosulfonyl-4-methyl)phenyl-5-fluoro-2,4-pyrimidinediamine] | 342 nM | – |
| – | 5240 nM | Cc1ccc(Nc2ncc(F)c(Nc3ccc4c(ccn4CC#N)c3)n2)cc1S(N)(=O)=O [IX-8, N2-(3-Aminosulfonyl-4-methylphenyl)-N4-(1-cyanomethyleneindol-5-yl)-5-fluoro-2,4-pyrimidinediamine] | – | 124 nM |
| – | 9930 nM | CCS(=O)(=O)N1CCc2cc(Nc3nc(Nc4cccc(S(N)(=O)=O)c4)ncc3F)ccc2C1 [VII-14, N2-(3-aminosulfonyl)phenyl-N4-[(N-ethylsulfonyl)-1,2,3,4-tetrahydroisoquinolin-6-yl]-5-fluoro-2,4-pyrimidinediamine] | – | 177 nM |
| – | 16600 nM | NC1CCOc2ccc(Nc3nc(Nc4cccc(S(N)(=O)=O)c4)ncc3F)cc21 (centres unmarked) [VII-28, N2-(3-Aminosulfonylphenyl)-N4-(chroman-4-amine-6-yl)-5-fluoro-2,4-pyrimidinediamine] | – | 709 nM |
| – | 61300 nM | COCCn1ncc2cc(Nc3nc(Nc4cccc(S(N)(=O)=O)c4)ncc3F)ccc21 [VII-23, N2-(3-Aminosulfonylphenyl)-5-fluoro-N4-[1-(2-methoxyethyl)indazolin-5-yl]-2,4-pyrimidinediamine] | – | 161 nM |
| 3200 nM | – | N#CCOc1ccc(Nc2nc(Nc3cccc(S(N)(=O)=O)c3)ncc2F)cc1F [Compound I-12, N2-(3-Aminosulfonylphenyl)-5-fluoro-N4-(4-cyanomethyleneoxy-3-fluorophenyl)-2,4-pyrimidinediamine] | 59.7 nM | – |
| – | 22000 nM | N2-[3-Aminosulfonyl-4-(4-methylpiperazine-1-yl)phenyl]-N4-(3-cyanomethylene-1H-indol-6-yl)-5-fluoro-2,4-pyrimidinediamine [IX-17] | – | 815 nM |
| 6740 nM | – | Cc1ccc(Nc2ncc(F)c(Nc3ccc(OCc4cccnc4)cc3)n2)cc1S(N)(=O)=O [Compound I-189, N2-(3-Aminosulfonyl-4-methylphenyl)-5-fluoro-N4-[4-(3-pyridinyl)methyleneoxyphenyl]-2,4-pyrimidinediamine] | 143 nM | – |
| – | 12500 nM | CNC(=O)N1CCCc2cc(Nc3nc(Nc4ccc(C)c(S(N)(=O)=O)c4)ncc3F)ccc21 [VII-19, N2-(3-Aminosulfonyl-4-methylphenyl)-5-fluoro-N4-[1-(methylaminocarbonyl)-1,2,3,4-tetrahydroquin-6-yl]-2,4-pyrimidinediamine] | – | 514 nM |
| 12800 nM | – | Cc1cc(Nc2nc(Nc3cccc(S(N)(=O)=O)c3)ncc2F)cc(C)c1OC(C)C(N)=O (racemic) [Compound I-123, Racemic N4-[4-(1-Aminocarbonyl)ethoxy-3,5-dimethyl]phenyl-N2-(3-aminosulfonyl)phenyl-5-fluoro-2,4-pyrimidinediamine] | 225 nM | – |

| IC50 [1, 2] | IC50 [1, 4] | Molecule | IC50 (Primary human T-cells; [3]) | IC50 (Primary human T-cells; [5]) |
| --- | --- | --- | --- | --- |
| 5030 nM | – | Cc1ccc(Nc2ncc(F)c(Nc3ccc(OCc4ccncc4)cc3)n2)cc1S(N)(=O)=O [Compound I-194, N2-(3-Aminosulfonyl-4-methylphenyl)-5-fluoro-N4-[4-(4-pyridinyl)methyleneoxyphenyl]-2,4-pyrimidinediamine] | 99.3 nM | – |
| 15600 nM | – | CN1CCN(c2ccc(Nc3ncc(F)c(Nc4ccc(OCC#N)cc4)n3)cc2S(N)(=O)=O)CC1 [Compound I-9, N2-[3-Aminosulfonyl-4-(4-methylpiperazin-1-yl)phenyl]-5-fluoro-N4-(4-cyanomethyleneoxyphenyl)-2,4-pyrimidinediamine] | 485 nM | – |
| – | 2600 nM | CS(=O)(=O)N1CCc2cc(Nc3nc(Nc4cccc(S(N)(=O)=O)c4)ncc3F)ccc21 [VII-60, N2-(3-Aminosulfonylphenyl)-5-fluoro-N4-[4-(1-methylsulfonyl)indolin-5-yl]-2,4-pyrimidinediamine] | – | 152 nM |
| 1340 nM | – | N#CCOc1ccc(Nc2nc(Nc3cccc(S(N)(=O)=O)c3)ncc2Br)cc1 [Compound I-13, N2-(3-Aminosulfonylphenyl)-5-bromo-N4-(4-cyanomethyleneoxyphenyl)-2,4-pyrimidinediamine] | 5.05 nM | – |
| – | 82800 nM | N#CCN1C(=O)CSc2ccc(Nc3nc(Nc4cccc(S(N)(=O)=O)c4)ncc3F)cc21 [VII-36, N2-(3-Aminosulphonylphenyl)-5-fluoro-N4-(3-oxo-4-cyanomethyl-benzo[1,4]thiazin-6-yl)-2,4-pyrimidinediamine] | – | 119 nM |
| 38700 nM | – | N2-(3-Aminosulfonyl-4-methylphenyl)-5-fluoro-N4-[4-(2-pyridinyl)-3-fluoromethyleneoxyphenyl]-2,4-pyrimidinediamine [Compound I-172] | 277 nM | – |
| 9670 nM | – | Cc1cc(Nc2nc(Nc3ccc(S(N)(=O)=O)cc3)ncc2F)ccc1OC(C)C(N)=O (racemic) [Compound I-119, Racemic N4-[4-(1-Aminocarbonyl)ethoxy-3-methyl]phenyl-N2-(4-aminosulfonyl)phenyl-5-fluoro-2,4-pyrimidinediamine] | 2440 nM | – |
| 40900 nM | – | Cc1ccc(Nc2ncc(F)c(Nc3cc(C)c(OCC(N)=O)c(C)c3)n2)cc1S(N)(=O)=O [Compound I-96, N4-(4-Aminocarbonylmethoxy-3,5-dimethyl)phenyl-N2-(3-aminosulfonyl-4-methyl)phenyl-5-fluoro-2,4-pyrimidinediamine] | 772 nM | – |
| – | 13100 nM | CCS(=O)(=O)N1CCc2cc(Nc3nc(Nc4ccc(C)c(S(N)(=O)=O)c4)ncc3F)ccc2C1 [VII-15, N2-(3-aminosulfonyl-4-methyl)phenyl-N4-[(N-ethylsulfonyl)-1,2,3,4-tetrahydroisoquinolin-6-yl]-5-fluoro-2,4-pyrimidinediamine] | – | 121 nM |
| 36400 nM | – | CC(Oc1ccc(Nc2nc(Nc3cccc(S(N)(=O)=O)c3)ncc2F)cc1)C(N)=O (racemic) [Compound I-117, Racemic N4-[4-(1-Aminocarbonyl)ethoxy]phenyl-N2-(3-aminosulfonyl)phenyl-5-fluoro-2,4-pyrimidinediamine] | 301 nM | – |
| 14500 nM | – | Cc1cc(Nc2nc(Nc3ccc(C)c(S(N)(=O)=O)c3)ncc2F)ccc1OC(C)C(N)=O (racemic) [Compound I-121, Racemic N4-[4-(1-Aminocarbonyl)ethoxy-3-methyl]phenyl-N2-(3-aminosulfonyl-4-methyl)phenyl-5-fluoro-2,4-pyrimidinediamine] | 634 nM | – |
| – | 36800 nM | N#CCn1ccc2cc(Nc3nc(Nc4ccc(S(N)(=O)=O)cc4)ncc3F)ccc21 [IX-6, N2-(4-Aminosulfonylphenyl)-N4-(1-cyanomethyleneindol-5-yl)-5-fluoro-2,4-pyrimidinediamine] | – | 535 nM |
| – | 4030 nM | Cc1ccc(Nc2ncc(F)c(Nc3ccc4c(c3)NC(=O)CS4)n2)cc1S(N)(=O)=O [VII-45, N2-(3-Aminosulphonyl-4-methyl-phenyl)-5-fluoro-N4-(3-oxo-4H-benzo[1,4]thiazin-6-yl)-2,4-pyrimidinediamine] | – | 282 nM |
| 612 nM | – | Cc1ccc(Nc2ncc(Br)c(Nc3ccc(OCC#N)cc3)n2)cc1S(N)(=O)=O [Compound I-14, N2-(3-Aminosulfonyl-4-methylphenyl)-5-bromo-N4-(4-cyanomethyleneoxyphenyl)-2,4-pyrimidinediamine] | 11.5 nM | – |
| 15100 nM | – | NS(=O)(=O)c1cccc(Nc2ncc(F)c(Nc3ccc(OCc4cccnc4)cc3)n2)c1 [Compound I-188, N2-(3-Aminosulfonylphenyl)-5-fluoro-N4-[4-(3-pyridinyl)methyleneoxyphenyl]-2,4-pyrimidinediamine] | 64.2 nM | – |
